Measured values reported in patent publication US11946059B2, “In vivo generation of water-soluble cannabinoids in plant cell suspension cultures” (Trait Biosciences Inc., priority 2017, dated 2024).

Test: Cannabinoid stability in solution (time course incubation)
Type: physicochemical
Conditions: room temperature, shielded from light
Method: Rather, levels increased slightly in all treatments. The absence of any residual UGTs were cross-check and confirmed as the samples were purified by SPE, washed and eluted in 30% and 65%-100% ethanol, respectively.
Materials and Methods Example 19: Cannabinoid Stability in Solution.
The present inventors generated a stock solution of the CBD/CBDA+glycosides mixture in water which was further diluted 10× in all treatment solutions. A 10 mL starting volume was used for all treatments, and all treatments were prepared in triplicate. […] Each sample was incubated at room temperature. Samples were stored in 15 mL polypropylene centrifuge tubes. All samples were shielded from light—tubes were wrapped in aluminum foil. Each sample was prepared in triplicate in the following buffers: water only; pH=3; pH=4; pH=7; pH=8; water only+10 mM ascorbic acid; pH=3+10 mM ascorbic acid; pH=4+10 mM ascorbic acid; pH=7+10 mM ascorbic acid; and pH=8+10 mM ascorbic acid.

[1] = Water + AA (10 mM ascorbic acid)
[2] = pH = 3 + AA (10 mM ascorbic acid)
[3] = pH = 4 + AA (10 mM ascorbic acid)
[4] = pH = 7 + AA (10 mM ascorbic acid)
[5] = pH = 8 + AA (10 mM ascorbic acid)

With C=C(C)[C@@H]1CCC(C)=C[C@H]1c1c(O)cc(CCCCC)cc1O [CBD, cannabidiol, reference compound] the “Day 0 concentration in solution” value [1] was 561.85 ± 86.83 µg/mL, the “Day 0 concentration in solution” value (Water) was 399.81 ± 111.06 µg/mL and the “Day 0 concentration in solution” value [2] was 565.75 ± 40.96 µg/mL. For the same compound, the “Day 0 concentration in solution” value (pH = 3) was 568.71 ± 115.90 µg/mL, the “Day 0 concentration in solution” value [3] was 524.40 ± 34.95 µg/mL and the “Day 0 concentration in solution” value (pH = 4) was 505.97 ± 5.10 µg/mL. The “Day 0 concentration in solution” value [4] was 500.03 ± 21.45 µg/mL, the “Day 0 concentration in solution” value (pH = 7) was 528.04 ± 91.17 µg/mL and the “Day 0 concentration in solution” value [5] was 1136.36 ± 996.36 µg/mL. For the same compound, the “Day 0 concentration in solution” value (pH = 8) was 513.35 ± 39.23 µg/mL, the “Day 1 concentration in solution” value [1] was 428.63 ± 198.77 µg/mL and the “Day 1 concentration in solution” value (Water) was 629.00 ± 383.79 µg/mL. The “Day 1 concentration in solution” value [2] was 650.49 ± 12.10 µg/mL, the “Day 1 concentration in solution” value (pH = 3) was 713.93 ± 41.47 µg/mL and the “Day 1 concentration in solution” value [3] was 406.17 ± 210.69 µg/mL. For the same compound, the “Day 1 concentration in solution” value (pH = 4) was 380.77 ± 233.10 µg/mL, the “Day 1 concentration in solution” value [4] was 505.88 ± 276.58 µg/mL and the “Day 1 concentration in solution” value (pH = 7) was 880.54 ± 5.87 µg/mL. The “Day 1 concentration in solution” value [5] was 291.15 ± 78.65 µg/mL, the “Day 1 concentration in solution” value (pH = 8) was 747.61 ± 101.87 µg/mL and the “Day 4 concentration in solution” value [1] was 182.66 ± 25.03 µg/mL. The “Day 4 concentration in solution” value (Water) was 432.54 ± 251.39 µg/mL, the “Day 4 concentration in solution” value [2] was 232.39 ± 113.88 µg/mL and the “Day 4 concentration in solution” value (pH = 3) was 191.94 ± 55.68 µg/mL. For the same compound, the “Day 4 concentration in solution” value [3] was 305.20 ± 97.35 µg/mL, the “Day 4 concentration in solution” value (pH = 4) was 278.33 ± 85.33 µg/mL and the “Day 4 concentration in solution” value [4] was 398.16 ± 391.86 µg/mL. The “Day 4 concentration in solution” value (pH = 7) was 539.55 ± 260.69 µg/mL, the “Day 4 concentration in solution” value [5] was 173.43 ± 17.53 µg/mL and the “Day 4 concentration in solution” value (pH = 8) was 560.90 ± 69.27 µg/mL. The “Day 5 concentration in solution” value [1] was 448.64 ± 33.51 µg/mL, the “Day 5 concentration in solution” value (Water) was 466.09 ± 130.53 µg/mL and the “Day 5 concentration in solution” value [2] was 320.48 ± 92.87 µg/mL. The “Day 5 concentration in solution” value (pH = 3) was 330.79 ± 138.28 µg/mL, the “Day 5 concentration in solution” value [3] was 366.65 ± 92.35 µg/mL and the “Day 5 concentration in solution” value (pH = 4) was 510.50 ± 76.06 µg/mL. For the same compound, the “Day 5 concentration in solution” value [4] was 353.25 ± 135.11 µg/mL, the “Day 5 concentration in solution” value (pH = 7) was 593.92 ± 6.30 µg/mL and the “Day 5 concentration in solution” value [5] was 287.24 ± 39.56 µg/mL. For the same compound, the “Day 5 concentration in solution” value (pH = 8) was 498.21 ± 92.88 µg/mL, the “Day 6 concentration in solution” value [1] was 957.17 ± 315.70 µg/mL and the “Day 6 concentration in solution” value (Water) was 179.13 ± 17.88 µg/mL. The “Day 6 concentration in solution” value [2] was 801.14 ± 230.88 µg/mL, the “Day 6 concentration in solution” value (pH = 3) was 607.98 ± 416.07 µg/mL and the “Day 6 concentration in solution” value [3] was 777.26 ± 56.02 µg/mL. For the same compound, the “Day 6 concentration in solution” value (pH = 4) was 897.52 ± 65.92 µg/mL, the “Day 6 concentration in solution” value [4] was 828.02 ± 269.38 µg/mL and the “Day 6 concentration in solution” value (pH = 7) was 1115.01 ± 169.64 µg/mL. The “Day 6 concentration in solution” value [5] was 847.26 ± 88.56 µg/mL, the “Day 6 concentration in solution” value (pH = 8) was 911.61 ± 84.17 µg/mL and the “Day 7 concentration in solution” value [1] was 592.44 ± 87.97 µg/mL. For the same compound, the “Day 7 concentration in solution” value (Water) was 680.13 ± 229.24 µg/mL, the “Day 7 concentration in solution” value [2] was 464.35 ± 105.43 µg/mL and the “Day 7 concentration in solution” value (pH = 3) was 563.80 ± 65.50 µg/mL. The “Day 7 concentration in solution” value [3] was 557.34 ± 60.39 µg/mL, the “Day 7 concentration in solution” value (pH = 4) was 641.86 ± 33.49 µg/mL and the “Day 7 concentration in solution” value [4] was 549.93 ± 39.69 µg/mL. The “Day 7 concentration in solution” value (pH = 7) was 544.28 ± 57.97 µg/mL, the “Day 7 concentration in solution” value [5] was 630.99 ± 2.44 µg/mL and the “Day 7 concentration in solution” value (pH = 8) was 580.54 ± 94.41 µg/mL.
